Common to all, as to assay type: in vivo
Assay [1] relates to Nilaparvata lugens (Stal) nymphs. In words: Joint toxicity of I-72 + etofenprox, Example 44, Table 44. Particulars: A = compound I-72, B = etofenprox, potted rice seedling spraying, 72 hours, read-out: LC50. As to the method: (§1) Test target: Nilaparvata lugens (Stal) nymphs, a sensitive strain reared indoors.
(§2) Preparation of the pesticide solution: according to different test requirements, the test samples were accurately weighed respectively with an electronic analytical balance. The technical pesticides were dissolved in acetone, and then diluted with 0.1% Tween 80 water into a series of pesticide solutions with a certain concentration gradient according to the experimental design dosage.
(§3) Experimental method: the activity of the mixture against the Nilaparvata lugens (Stal) nymphs was determined by adopting the potted-seedling spraying method. First, rice seedlings were planted in culture pots. Uniform spraying was performed with the pesticide solution in the order from low dosage to high dosage according to the experimental design, with 2 mL for each seedling. Then, Nilaparvata lugens nymphs of uniform size were transferred onto the rice seedlings, with 3 replicates for each treatment. In addition, a blank control was set up.
(§4) The treated test materials were placed in an observation room, and the temperature, humidity and illumination of the observation room could be adjusted as needed. The number of dead and live insects was investigated 72 hours later. […] Then, the co-toxicity coefficient of each ratio was calculated using the Sun Y-P method to evaluate the mixing effect (the same as in Example 1).

Assay [2] has the same test system. As to the kind of experiment: Joint toxicity of I-72 + triflumezopyrim, Example 75, Table 75. The note with it: Nilaparvata lugens; A = compound I-72, B = triflumezopyrim; potted-seedling spraying; 72 hours; read-out: LC50. As to the method:
as §1, §2, §3, §4

Assay [3] concerns Liriomyza sativae Blanchard larvae. In words: Joint toxicity of I-72 + cyromazine, Example 55, Table 55. Particulars: A = compound I-72, B = cyromazine, kidney bean seedling spraying, counted after blank control larvae pupated, read-out: LC50. As to the method: Test target: Liriomyza sativae Blanchard larvae.
as §2
Experimental method: first, kidney bean seedlings with the Liriomyza sativae Blanchard larvae (the larvae had just invaded and formed mines) were selected. Spraying treatments were performed in the order from low dosage to high dosage according to the experimental design, with 3 replicates for each treatment. In addition, a blank control was set up.
The treated test materials were placed in an observation room, and the temperature, humidity and illumination of the observation room could be adjusted as needed. After the larvae in the blank control group pupated, the numbers of dead and live insects were then counted. […] Then, the co-toxicity coefficient of each ratio was calculated using the Sun Y-P method to evaluate the mixing effect (the same as in Example 1).

The subject of assay [4] is 3rd-instar larvae of Pyrausta nubilalis Hubern. In words: Synergism assay (Bliss) of I-72 + abamectin, spinosad, spinetoram, emamectin benzoate, Example 6, Table 6. Particulars: Ostrinia nubilalis, 72 h, read-out: Mortality rate (%). As to the method: Test subject: 3rd-instar larvae of Pyrausta nubilalis Hubern, a sensitive strain reared indoors.
Test conditions: temperature: 24-26° C., humidity: RH 60%, and illumination: L:D=14:10
Preparation method: the test pesticides were accurately weighed respectively with an electronic analytical balance. After the two technical materials were respectively added into an appropriate amount of solvent and completely dissolved, the stock solution of the required concentration was prepared with water containing 0.1% Tween 80. The stock solutions of the two active ingredients were mixed in a certain ratio to prepare a mixed solution, which was then diluted respectively into a series of pesticide solutions with a certain concentration gradient according to the experimental design dosage.
Experimental method: the artificial diet-pesticide film method was adopted. A standard clean 24-well culture plate was selected. 1 ml of artificial diet was added to each well. After the diet cooled and solidified, a quantitative amount of a pesticide solution was added to the culture plate using a continuous sampler, and then it was air-dried naturally in the shade. The standard test insects were introduced, with 1 insect in each well, a total of 48 insects. The treated test insects were placed in an observation room under certain conditions. The reaction of the test insects was regularly observed, and the number of dead and live insects was investigated 72 h later.
The evaluation method adopted was the Bliss method. This method is applicable to the qualitative screening of insecticidal compositions. According to the concept of independent joint action he proposed, Bliss believes that the theoretical mortality rate P when insecticides are used in combination can be calculated by the following formula: […]
Pm is the mortality rate (%) of the target when the first active ingredient is at a concentration of m; and Pn is the mortality rate (%) of the target when the second active ingredient is at a concentration of n.
If the actual mortality rate of the target after the two active ingredients are mixed at a certain concentration is greater than theoretical mortality rate P, it is determined that the two active ingredients have a synergistic effect when used in combination at the set concentration, and otherwise, they have an antagonistic effect.

Assay [5] concerns Frankliniella occidentalis Pergande. As to the kind of experiment: Joint toxicity of I-72 + organophosphorus insecticides, leaf dipping, Example 14, Table 14. Particulars: foliar, kidney bean leaf dipping, 48 h, A = compound I-72, B = triazophos, read-out: LC50.
Description: Test target: Frankliniella occidentalis Pergande, a sensitive strain reared indoors.
Experimental method: first, kidney bean leaves were selected and dipped in the prepared pesticide solution for 10 s in the order from low dosage to high dosage according to the experimental design. After natural air-drying in the shade, they were placed in a 9-cm-diameter Petri dish with filter paper, and uniform and healthy test insects were introduced, with about 20 insects for each treatment and 3 replicates for each treatment. In addition, a blank control was set up.
The treated test materials were placed in an observation room, and the temperature, humidity and illumination of the observation room could be adjusted as needed. The number of dead and live insects was investigated 48 hours later.
Assay [6] concerns 2nd-instar larvae of Plutella xylostella. In words: Joint toxicity of I-72 + tetraniliprole, Example 58, Table 58. Particulars: Plutella xylostella, foliar; A = compound I-72, B = tetraniliprole; cabbage leaf dipping; 72 hours; read-out: LC50. As to the method: Test target: 2nd-instar larvae of Plutella xylostella.
as §2
Experimental method: first, cabbage leaves were selected and dipped in the prepared pesticide solution for 10 s in the order from low dosage to high dosage according to the experimental design. After natural air-drying in the shade, they were placed in a 9-cm-diameter Petri dish with filter paper, and uniform and healthy test insects were introduced, with 10 insects for each treatment and 3 replicates for each treatment. In addition, a blank control was set up.
as §4

The subject of a further assay is Aphis craccivora nymphs. In words: Synergism screening (Bliss) of I-72 + pyrethroid insecticides, Example 38, Table 38. Particulars: Aphis craccivora, single pesticide, broad bean seedling spraying, 48 hours, read-out: Measured mortality rate (%). As to the method: Test target: Aphis craccivora nymphs, a sensitive strain reared indoors.
as §2
Experimental method: first, broad bean seedlings with uniform and consistent Aphis craccivora were selected, with about 30-40 insects on each seedling. Then, they were evenly sprayed with the pesticide solution in the order from low dosage to high dosage according to the experimental design, with 1.5 mL of the solution for each leaf and 3 replicates for each treatment. In addition, a blank control (CK) was set up.
The treated test materials were placed in an observation room, and the temperature, humidity and illumination of the observation room could be adjusted as needed. The number of dead and alive insects was investigated 48 hours later, and the corrected mortality rate was calculated using the Abbott's formula.
The synergism of the mixture was evaluated by adopting the Bliss method, as in Example 5.

On to `CN(C(=O)c1ccc2c(c1)OC(F)(F)O2)c1cccc(C(=O)Nc2c(Br)cc(C(F)(C(F)(F)F)C(F)(F)F)cc2OC(F)F)c1F` [Compound I-72], for which the LC50 – broadly, the concentration lethal to half of the exposed cells or organisms – turned out to be 282 µg/mL in assay [1]; 285 µg/mL in assay [2]; 0.501 µg/mL in assay [3]; 3.13 µg/mL in assay [5]; 0.0888 µg/mL in assay [6]. Moreover, the mortality (commonly the share of the test organisms that died) at 0.05 µg/mL in assay [4] (single agent 0.05 mg/L) came out at 10.4%. Also, the mortality at 0.1 µg/mL in assay [4] (single agent 0.1 mg/L) came out at 25%; in the assay on Aphis craccivora nymphs (concentration 0.1 mg/L), 11.9%. Further, the mortality at 1 µg/mL in assay [4] (single agent 1 mg/L) turned out to be 62.5%. Further, the mortality at 2 µg/mL in assay [4] (single agent 2 mg/L) worked out at 72.9%. In addition, the mortality at 5 µg/mL in assay [4] (single agent 5 mg/L) is 81.2%. Also, the mortality at 3 µg/mL in the assay with Aphis craccivora nymphs (concentration 3 mg/L) was found to be 60.6%.

These data come from US20260198495A1, “BINARY INSECTICIDE COMPOSITION AND USE THEREOF” (SHENYANG SINOCHEM AGROCHEMICALS R & D CO., LTD., priority 2022, published 2026).
